Measured values from the supplement of paper PMC10307832.

Experiments:
Assay in all cases: relative viability (nuclei count vs DMSO), 5 days (fraction); higher = more cells survive
NCI-H2009 = system: NCI-H2009
How it was run: (§1)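 Values are medians from duplicate plates. Each reflects relative viability, defined as the nuclei count of treated wells over that of vehicle wells. Lung cancer cell lines in 1536-well plates were pin-tool dosed one day after seeding with one drug alone or with a fixed anchor-drug dose plus five library-drug doses (not always all listed) in √10 steps, then fixed, stained and imaged at 4× after 5 days.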

NCI-H1975 = system: NCI-H1975
How it was run: as §1

LCLC-103H = system: LCLC-103H
How it was run: as §1

NCI-H460 = system: NCI-H460
How it was run: as §1

CAL-12T = system: CAL-12T
How it was run: as §1

NCI-H1755 = system: NCI-H1755
How it was run: as §1

EMC-BAC-2 = system: EMC-BAC-2
How it was run: as §1

HCC-827 = system: HCC-827
How it was run: as §1

NCI-H1915 = system: NCI-H1915
How it was run: as §1

COR-L 105 = system: COR-L 105
How it was run: as §1

NCI-H1792 = system: NCI-H1792
How it was run: as §1

SW 1573 = system: SW 1573
How it was run: as §1

NCI-H2228 = system: NCI-H2228
How it was run: as §1

NCI-H1355 = system: NCI-H1355
How it was run: as §1

NCI-H727 = system: NCI-H727
How it was run: as §1

NCI-H1395 = system: NCI-H1395
How it was run: as §1

SK-LU-1 = system: SK-LU-1
How it was run: as §1

HARA = system: HARA
How it was run: as §1

NCI-H23 = system: NCI-H23
How it was run: as §1

HOP-62 = system: HOP-62
How it was run: as §1

NCI-H1437 = system: NCI-H1437
How it was run: as §1

A-427 = system: A-427
How it was run: as §1

C=C1C(=O)O[C@@H](CCCCCCCC)[C@@H]1C(=O)O [C-75] + CCNC(=O)c1noc(-c2cc(C(C)C)c(O)cc2O)c1-c1ccc(CN2CCOCC2)cc1 [Luminespib] (partner 0.01 µM)
relative viability (NCI-H2009; first compound 0.08 µM): 1.02
relative viability (NCI-H2009; first compound 0.253 µM): 1.05
relative viability (NCI-H2009; first compound 0.8 µM): 1
relative viability (NCI-H2009; first compound 2.53 µM): 0.999
relative viability (NCI-H2009; first compound 8 µM): 0.793
relative viability (NCI-H1975; first compound 0.08 µM): 0.161
relative viability (NCI-H1975; first compound 0.253 µM): 0.195
relative viability (NCI-H1975; first compound 0.8 µM): 0.122
relative viability (NCI-H1975; first compound 2.53 µM): 0.13
relative viability (NCI-H1975; first compound 8 µM): 0.252
relative viability (LCLC-103H; first compound 0.08 µM): 0.912
relative viability (LCLC-103H; first compound 0.253 µM): 1.02
relative viability (LCLC-103H; first compound 0.8 µM): 0.83
relative viability (LCLC-103H; first compound 2.53 µM): 0.932
relative viability (LCLC-103H; first compound 8 µM): 0.888
relative viability (NCI-H460; first compound 0.08 µM): 0.0308
relative viability (NCI-H460; first compound 0.253 µM): 0.0239
relative viability (NCI-H460; first compound 0.8 µM): 0.0329
relative viability (NCI-H460; first compound 8 µM): 0.0319
relative viability (CAL-12T; first compound 0.08 µM): 0.898
relative viability (CAL-12T; first compound 0.253 µM): 0.365
relative viability (CAL-12T; first compound 0.8 µM): 0.178
relative viability (CAL-12T; first compound 2.53 µM): 0.405
relative viability (CAL-12T; first compound 8 µM): 0.376
relative viability (NCI-H1755; first compound 0.08 µM): 0.384
relative viability (NCI-H1755; first compound 0.253 µM): 0.489
relative viability (NCI-H1755; first compound 0.8 µM): 0.465
relative viability (NCI-H1755; first compound 2.53 µM): 0.467
relative viability (NCI-H1755; first compound 8 µM): 0.416
relative viability (EMC-BAC-2; first compound 0.08 µM): 1.25
relative viability (EMC-BAC-2; first compound 0.253 µM): 1.24
relative viability (EMC-BAC-2; first compound 0.8 µM): 1.05
relative viability (EMC-BAC-2; first compound 2.53 µM): 0.876
relative viability (EMC-BAC-2; first compound 8 µM): 1.18
relative viability (HCC-827; first compound 0.08 µM): 0.519
relative viability (HCC-827; first compound 0.253 µM): 0.703
relative viability (HCC-827; first compound 0.8 µM): 0.825
relative viability (HCC-827; first compound 2.53 µM): 0.42
relative viability (HCC-827; first compound 8 µM): 0.566
relative viability (NCI-H1915; first compound 0.08 µM): 0.694
relative viability (NCI-H1915; first compound 0.253 µM): 0.768
relative viability (NCI-H1915; first compound 0.8 µM): 0.798
relative viability (NCI-H1915; first compound 2.53 µM): 0.717
relative viability (NCI-H1915; first compound 8 µM): 0.677
relative viability (COR-L 105; first compound 0.08 µM): 0.688
relative viability (COR-L 105; first compound 0.253 µM): 0.584
relative viability (COR-L 105; first compound 0.8 µM): 0.817
relative viability (COR-L 105; first compound 2.53 µM): 0.815
relative viability (COR-L 105; first compound 8 µM): 0.638
relative viability (NCI-H1792; first compound 0.08 µM): 0.423
relative viability (NCI-H1792; first compound 0.253 µM): 0.484
relative viability (NCI-H1792; first compound 0.8 µM): 0.514
relative viability (NCI-H1792; first compound 2.53 µM): 0.331
relative viability (NCI-H1792; first compound 8 µM): 0.522
relative viability (SW 1573; first compound 0.08 µM): 0.168
relative viability (SW 1573; first compound 0.253 µM): 0.254
relative viability (SW 1573; first compound 0.8 µM): 0.207
relative viability (SW 1573; first compound 2.53 µM): 0.216
relative viability (SW 1573; first compound 8 µM): 0.157
relative viability (NCI-H2228; first compound 0.08 µM): 0.135
relative viability (NCI-H2228; first compound 0.253 µM): 0.161
relative viability (NCI-H2228; first compound 0.8 µM): 0.116
relative viability (NCI-H2228; first compound 2.53 µM): 0.181
relative viability (NCI-H2228; first compound 8 µM): 0.283
relative viability (NCI-H1355; first compound 0.08 µM): 0.621
relative viability (NCI-H1355; first compound 0.253 µM): 0.668
relative viability (NCI-H1355; first compound 0.8 µM): 0.641
relative viability (NCI-H1355; first compound 2.53 µM): 0.394
relative viability (NCI-H1355; first compound 8 µM): 0.615
relative viability (NCI-H727; first compound 0.08 µM): 0.371
relative viability (NCI-H727; first compound 0.253 µM): 0.358
relative viability (NCI-H727; first compound 0.8 µM): 0.312
relative viability (NCI-H727; first compound 8 µM): 0.484
relative viability (NCI-H1395; first compound 0.08 µM): 0.613
relative viability (NCI-H1395; first compound 0.253 µM): 0.574
relative viability (NCI-H1395; first compound 0.8 µM): 0.713
relative viability (NCI-H1395; first compound 2.53 µM): 0.755
relative viability (NCI-H1395; first compound 8 µM): 0.686
relative viability (SK-LU-1; first compound 0.08 µM): 0.202
relative viability (SK-LU-1; first compound 0.253 µM): 0.191
relative viability (SK-LU-1; first compound 0.8 µM): 0.184
relative viability (SK-LU-1; first compound 2.53 µM): 0.193
relative viability (SK-LU-1; first compound 8 µM): 0.161
relative viability (HARA; first compound 0.08 µM): 0.684
relative viability (HARA; first compound 0.253 µM): 0.684
relative viability (HARA; first compound 0.8 µM): 0.683
relative viability (HARA; first compound 2.53 µM): 0.712
relative viability (HARA; first compound 8 µM): 0.612
relative viability (NCI-H23; first compound 0.08 µM): 0.246
relative viability (NCI-H23; first compound 0.253 µM): 0.206
relative viability (NCI-H23; first compound 0.8 µM): 0.198
relative viability (NCI-H23; first compound 2.53 µM): 0.222
relative viability (NCI-H23; first compound 8 µM): 0.209
relative viability (HOP-62; first compound 0.08 µM): 0.858
relative viability (HOP-62; first compound 0.253 µM): 0.945
relative viability (HOP-62; first compound 0.8 µM): 0.902
relative viability (HOP-62; first compound 2.53 µM): 0.909
relative viability (HOP-62; first compound 8 µM): 0.801
relative viability (NCI-H1437; first compound 0.08 µM): 1.15
relative viability (NCI-H1437; first compound 0.253 µM): 1.27
relative viability (NCI-H1437; first compound 0.8 µM): 1.11
relative viability (NCI-H1437; first compound 2.53 µM): 1.13
relative viability (NCI-H1437; first compound 8 µM): 1.12
relative viability (A-427; first compound 0.08 µM): 0.931
relative viability (A-427; first compound 0.253 µM): 0.788
relative viability (A-427; first compound 0.8 µM): 0.922
relative viability (A-427; first compound 2.53 µM): 0.842
relative viability (A-427; first compound 8 µM): 0.703
